The OPERA property sets (Mansouri et al. 2018)

Details: not given
Work on `O=C1c2ccccc2C(=O)c2c1ccc(O)c2O` yielded a boiling point of 430 °C, a log10 vapour pressure (mmHg) of -9.06 and a melting point of 290 °C. Work on `O=C1OC(=Cc2ccccc2)c2ccccc21` yielded a melting point of 100 °C. `CCCCS(=O)CCCC` gave a melting point of 32.6 °C. `CC(C)(C)NC=O` showed a boiling point of 202 °C, a log10 vapour pressure (mmHg) of -0.569 and a melting point of 16 °C. In the case of `NC(=O)C(N)=O`, the log10 vapour pressure (mmHg) is reported as -7.2. With `OC(CCN1CCCC1)(c1ccccc1)C1CCCCC1` (stereo not drawn) the melting point was 86 °C. Work on `CCC(C)(C#N)/N=N/C(C)(C#N)CC` (stereo not drawn) yielded a melting point of 50 °C. `O=[N+]([O-])CCO` showed a boiling point of 194 °C and a melting point of -80 °C. For `OCC(F)(F)C(F)(F)C(F)(F)C(F)(F)C(F)(F)C(F)(F)C(F)(F)F`, the boiling point was 161 °C. Work on `CCc1cccs1` yielded a boiling point of 134 °C and a log10 vapour pressure (mmHg) of 1.05. `C[C@@H](N)C(C)(C)C` gave a boiling point of 102 °C and a melting point of -20 °C. In the case of `Cc1cc(Cl)nn1C`, the boiling point is reported as 211 °C and the melting point is reported as 47.5 °C. In the case of `CC(C)N(C(=O)COc1nnc(C(F)(F)F)s1)c1ccc(F)cc1`, the log10 vapour pressure (mmHg) is reported as -6.17 and the melting point is reported as 76 °C. In the case of `CCC(=O)c1c(O)cc(O)cc1O`, the melting point is reported as 176 °C. With `N#Cc1cccc2ccccc12` the boiling point was 299 °C and the melting point was 37.5 °C. `CCOC(=O)C1(S(=O)(=O)c2ccc(C)cc2)CC1` showed a melting point of 75.5 °C. `Cc1ccccc1CC#N` gave a boiling point of 244 °C. With `COCC(=O)N(c1c(C)cccc1C)C(C)C(=O)OC` (stereo not drawn) the log10 Koc (L/kg) was 1.57, the log10 vapour pressure (mmHg) was -4.93 and the ready biodegradability was “not readily biodegradable”. For `CCC(CC)CCC(C)C`, the boiling point was 160 °C. For `C[N+]1(CCC(O)(c2ccccc2)c2cccs2)CCOCC1.[I-]` (stereo not drawn), the melting point was 190 °C. Work on `Clc1ccc2c(Cl)cc(Cl)c(Cl)c2c1` yielded a log10 Koa of 8.13 and a log10 vapour pressure (mmHg) of -5.07. With `CCCCc1ccc(C(=O)O)cc1` the melting point was 106 °C. Compound `CCc1cccc(C(C)C)c1` has a boiling point of 192 °C. In the case of `CCC(C)C=O` (stereo not drawn), the melting point is reported as 91 °C. With `COc1ccc(O)c(C=O)c1` the boiling point was 248 °C and the melting point was 4 °C. With `[Br-].[Br-].c1cc[n+]2c(c1)-c1cccc[n+]1CC2` the melting point was 337 °C. Compound `CN1[C@@H]2CC[C@H]1C[C@@H](OC(=O)C(O)c1ccccc1)C2` (mixture of isomers) has a melting point of 99.5 °C. Compound `Cc1cc(C(C#N)c2ccc(Cl)cc2)c(Cl)cc1NC(=O)c1cc(I)cc(I)c1O` (stereo not drawn) has a melting point of 218 °C. Compound `CCC(C)CCc1ccccc1` (stereo not drawn) has a boiling point of 220 °C. For `CCCCCCCCCCCC(C)=O`, the boiling point was 263 °C, the log10 vapour pressure (mmHg) was -1.98 and the melting point was 30.5 °C. In the case of `Cc1cccc2c1ccc1c3ccccc3ccc21`, the melting point is reported as 256 °C. In the case of `C[C@H](NC(=O)COC(=O)c1ccccc1)C(N)=O`, the melting point is reported as 202 °C. `CC(COc1ccc(C(C)(C)C)cc1)OS(=O)OCCCl` (stereo not drawn) gave a melting point of -31.7 °C. For `CCCCC(=O)O[C@]1(C(=O)CO)[C@@H](C)C[C@H]2[C@@H]3CCC4=CC(=O)C=C[C@]4(C)[C@@]3(F)[C@@H](O)C[C@@]21C`, the melting point was 184 °C. In the case of `Cc1c(O)c(Br)c(Br)c(Br)c1Br`, the melting point is reported as 208 °C. For `C#C[C@]1(O)CC[C@H]2[C@@H]3CCc4cc(O)ccc4[C@H]3[C@@H](OC)C[C@@]21C`, the melting point was 280 °C. With `CC(C)C(N)=O` the boiling point was 218 °C and the melting point was 128 °C. For `OCC(F)(F)C(F)C(F)(F)F` (stereo not drawn), the boiling point was 117 °C. Work on `NC(=O)N1c2ccccc2CC(=O)c2ccccc21` yielded a melting point of 216 °C. In the case of `Cc1ccc(OP(=O)(Oc2ccc(C)c(C)c2)Oc2ccc(C)c(C)c2)cc1C`, the melting point is reported as 72 °C. `CCCc1ssc(=S)c1C` showed a melting point of 49 °C. `O=C(Cl)c1ccc(F)cc1` gave a melting point of 9 °C. With `CCCCC[Si](Cl)(Cl)Cl` the boiling point was 172 °C. `OCC1CCCC1` gave a boiling point of 163 °C. `CC(C)Cc1ccc(N)cc1` gave a boiling point of 238 °C. `C#CCI` showed a boiling point of 115 °C. In the case of `CNC(=O)Oc1cccc(C(C)C)c1`, the melting point is reported as 73 °C. For `CCC(C)CCC(C)O` (stereo not drawn), the boiling point was 170 °C and the melting point was -61 °C. In the case of `CC(=O)Oc1ccccc1[N+](=O)[O-]`, the log10 vapour pressure (mmHg) is reported as -2.66 and the melting point is reported as 40.5 °C. `CC(CCl)CCCl` (stereo not drawn) gave a boiling point of 168 °C. For `CCC(Nc1ncnc(C)c1Cl)c1ccc(OC(F)F)cc1` (stereo not drawn), the log10 vapour pressure (mmHg) was -5.62 and the melting point was 47.3 °C. `Brc1cccc(Br)c1Br` gave a melting point of 87.5 °C. `C1COCO1` showed a boiling point of 78 °C, a log10 Henry constant (atm·m³/mol) of -4.61 and a log10 vapour pressure (mmHg) of 1.9. It also gave a melting point of -95 °C. Work on `O=C(O)C(=O)c1ccccc1` yielded a melting point of 66 °C. `Cc1ccc2c(c1)CCCC2` showed a boiling point of 229 °C and a melting point of -40 °C. With `C/C=C/C(=O)N(CC)c1ccccc1C` the ready biodegradability was “not readily biodegradable”. Work on `CCC(CC(C)C)C(C)C` (stereo not drawn) yielded a boiling point of 154 °C. Work on `CC(=O)c1ccc(O[C@@H]2O[C@H](CO)[C@@H](O)[C@H](O)[C@H]2O)cc1` yielded a melting point of 196 °C. For `c1cncc(-c2ccnc(-c3cccnc3)c2)c1`, the melting point was 148 °C. Compound `C#CCN1C(=O)CN=C(c2ccccc2)c2cc(Cl)ccc21` has a melting point of 141 °C. For `CC(C)OC(=O)c1ccccc1`, the boiling point was 216 °C. `CC1(C)OCCO1` gave a boiling point of 92.5 °C. Work on `CCc1oc2ccccc2c1C(=O)c1cc(I)c(O)c(I)c1` yielded a melting point of 167 °C. Compound `CC(C)COCC(C)C` has a boiling point of 123 °C, a log10 Koa of 3.4 and a log10 vapour pressure (mmHg) of 1.19. In the case of `CCCC(=O)Nc1ccccc1`, the log10 Koc (L/kg) is reported as 1.71 and the melting point is reported as 97 °C. Compound `CCCCCCCCCCCCCCCCCC(=O)OCCO` has a melting point of 60.5 °C. In the case of `ClCc1ccc(Cl)cc1`, the boiling point is reported as 223 °C and the melting point is reported as 31 °C. Compound `Cc1ccc2c(C)cccc2c1` has a boiling point of 264 °C, a log10 vapour pressure (mmHg) of -1.84 and a melting point of -16.9 °C. `C=CCF` showed a boiling point of -3 °C. For `O=C(O)c1ccc(Cl)c(Cl)c1`, the ready biodegradability was “not readily biodegradable”. Work on `CC(C)(Cl)CCC(C)(C)Cl` yielded a melting point of 67.5 °C. `COc1ccc(OC)c(N)c1` gave a boiling point of 270 °C and a melting point of 82.5 °C. `Cc1cccc2ccc(Cl)nc12` gave a boiling point of 287 °C and a melting point of 61 °C. For `CC(CO)(CO)C(=O)O`, the melting point was 190 °C. For `CCN(CC)c1nc(Cl)nc(NC(C)C)n1`, the log10 Koc (L/kg) was 2.91. In the case of `NNc1c(Cl)cc(Cl)cc1Cl`, the ready biodegradability is reported as “not readily biodegradable”. Compound `C1=CC=CCC=C1` has a boiling point of 117 °C, a log10 vapour pressure (mmHg) of 1.37 and a melting point of -79.5 °C. Work on `CN(C)c1cccc2ccccc12` yielded a boiling point of 280 °C. In the case of `Cc1ccc(C(=O)NS(=O)(=O)c2ccc(N)cc2)cc1C`, the melting point is reported as 222 °C. `CNC(=O)COC(=O)c1ccccc1` gave a melting point of 112 °C. For `CCCOC(=O)OCCC`, the boiling point was 168 °C. For `Brc1ccc(Oc2c(Br)cc(Br)cc2Br)c(Br)c1`, the logP was 7.24. Compound `C=CCOCC` has a boiling point of 67.6 °C and a log10 vapour pressure (mmHg) of 2.18. For `O=C(O)c1ccc([N+](=O)[O-])c([N+](=O)[O-])c1`, the log10 Koc (L/kg) was 1.53 and the melting point was 166 °C. Compound `CCC(C)Br` (stereo not drawn) has a boiling point of 91.2 °C, a log10 vapour pressure (mmHg) of 1.76 and a melting point of -112 °C. In the case of `CC(C)C1=CC2C(C)CC1C1C(=O)OC(=O)C21` (stereo not drawn), the ready biodegradability is reported as “not readily biodegradable”. In the case of `N#Cc1cccc([N+](=O)[O-])c1`, the melting point is reported as 116 °C. For `OCC(Cl)(Cl)Cl`, the boiling point was 152 °C and the melting point was 19 °C. `Nc1ccc2ncsc2c1` gave a melting point of 87 °C. For `O=C1C=CC(=O)N1c1ccc(Cc2ccc(N3C(=O)C=CC3=O)cc2)cc1`, the ready biodegradability was “not readily biodegradable”. Work on `CC(=O)[C@H]1CC[C@H]2[C@@H]3CCC4=CC(=O)CC[C@]4(C)[C@H]3CC[C@]12C` yielded a melting point of 121 °C. With `ClCC(Cl)C(Cl)=C(Cl)C(Cl)CCl` (stereo not drawn) the melting point was 58.5 °C.

Same assay, conditions: fish
`O=C(O)c1ccc(Cl)c(Cl)c1` gave a log10 BCF of 0.36. `Brc1ccc(Oc2c(Br)cc(Br)cc2Br)c(Br)c1` gave a log10 BCF of 6.36.
